Patent US20160135455A1, “SAFENED HERBICIDAL COMPOSITIONS COMPRISING PYRIDINE CARBOXYLIC ACIDS” (Dow AgroSciences LLC, priority 2014, published 2016)
Read-outs that look alike come from different tables or passages of the source.

How the values were obtained:
Assay type in all cases: in vivo
[1] = tested on: wheat (TRZAS), Triticum aestivum (spring wheat); assay: Postemergence greenhouse trial, crop injury (phytotoxicity/safening) on wheat; details: applied alone at 35 g/ha, scored 20-22 d, 0 = no injury, 100 = complete kill
Protocol: (§1) Seeds of the desired test plant species were planted in Sun Gro MetroMix® 306 planting mixture, which typically has a pH of 6.0 to 6.8 and an organic matter content of about 30 percent, in plastic pots with a surface area of 103.2 square centimeters (cm^2). When required to ensure good germination and healthy plants, a fungicide treatment and/or other chemical or physical treatment was applied. The plants were grown for 7-36 days (d) in a greenhouse with an approximate 14-hour (h) photoperiod which was maintained at about 23° C. during the day and 22° C. during the night. Nutrients and water were added on a regular basis and supplemental lighting was provided with overhead metal halide 1000-Watt lamps as necessary. The plants were employed for testing when they reached the second or third true leaf stage.
(§2) Weighed amounts of technical material were dissolved in a volume of 97:3 volume per volume (v/v) acetone/dimethyl sulfoxide (DMSO) to stock solutions. […] The concentrated stock solutions were diluted with an aqueous mixture of 1.5% v/v of Agri-dex crop oil concentrate to provide the appropriate application rates. Compound requirements are based upon a 12 milliliter (mL) application volume at a rate of 187 liters per hectare (L/ha). Stocks solutions of the safeners were prepared following the same procedure. Spray solutions of the safeners and experimental compound mixtures were prepared by adding the stock solutions to the appropriate amount of dilution solution to form a 12 mL spray solution in two-way combinations. Formulated compounds were applied to the plant material with an overhead Mandel track sprayer equipped with 8002E nozzles calibrated to deliver 187 L/ha over an application area of 0.503 square meters (m^2) at a spray height of 18 inches (43 centimeters (cm)) above average plant canopy. Control plants were sprayed in the same manner with the solvent blank. All herbicide application (component a) rates are in g ae/ha and all safener (component b) rates are in g ai/ha.
(§3) The treated plants and control plants were placed in a greenhouse as described above and watered by sub-irrigation to prevent wash-off of the test compounds. After 20-22 d, the condition of the test plants as compared with that of the control plants was determined visually and scored on a scale of 0 to 100 percent where 0 corresponds to no injury and 100 corresponds to complete kill. The condition of the test plants was compared with that of the control plants as determined visually and scored on a scale of 0 to 100 percent, where 0 corresponds to no injury and 100 corresponds to complete kill. Colby's equation was used to determine the herbicidal effects expected from the mixtures.
(§4) The safener fenchlorazole-ethyl was combined with compound 1, compound 2, compound 3, compound 4, compound 5, and compound 6, and applied to wheat (TRZAS), and the phytotoxicity of the herbicidal compositions was measured. In addition, the efficacy of the herbicidal composition on velvetleaf (ABUTH, Abutilon theophrasti), pigweed (AMARE, Amaranthus retroflexus), winter rape (BRSNW, Brassica napus), lambsquarters (CHEAL, Chenopodium album), thistle (CIRAR, Cirsium arvense), nutsedge (CYPES, Cyperus esculentus), poinsettia (EPHHL, Euphorbia heterophylla), wild buckwheat (POLCO, Polygonum convolvulus), giant foxtail (SETFA, Setaria faberi), sorghum (SORVU, Sorghum bicolor), chickweed (STEME, Stellaria media), and wild pansy (VIOTR, Viola tricolor) was evaluated.
The safener isoxadifen-ethyl was combined with compound 1, compound 2, compound 3, compound 4, compound 5, and compound 6, and applied to wheat (TRZAS), and the phytotoxicity of the herbicidal compositions was measured. […]

[2] = tested on: velvetleaf (ABUTH, Abutilon theophrasti); assay: Postemergence greenhouse trial, herbicidal efficacy on velvetleaf; details: post-emergence, 528 h, applied alone at 35 g/ha, postemergence
Protocol: as §1, §2, §3

[3] = tested on: pigweed (AMARE, Amaranthus retroflexus); assay: Postemergence greenhouse trial, herbicidal efficacy on pigweed; details: post-emergence, 528 h, applied alone at 35 g/ha, postemergence
Protocol: as §1, §2, §3

[4] = tested on: winter rape (BRSNW, Brassica napus); assay: Postemergence greenhouse trial, herbicidal efficacy on winter rape; details: post-emergence, 528 h, applied alone at 35 g/ha, postemergence
Protocol: as §1, §2, §3

[5] = tested on: lambsquarters (CHEAL, Chenopodium album); assay: Postemergence greenhouse trial, herbicidal efficacy on lambsquarters; details: post-emergence, 528 h, applied alone at 35 g/ha, postemergence
Protocol: as §1, §2, §3

[6] = tested on: thistle (CIRAR, Cirsium arvense); assay: Postemergence greenhouse trial, herbicidal efficacy on thistle; details: post-emergence, 528 h, applied alone at 35 g/ha, postemergence
Protocol: as §1, §2, §3

[7] = tested on: nutsedge (CYPES, Cyperus esculentus); assay: Postemergence greenhouse trial, herbicidal efficacy on nutsedge; details: applied alone at 35 g/ha; for % visual injury, Obs, CYPES: rated after 20-22 d; for Obs, % visual injury, CYPES: scored 20-22 d
Protocol: as §1, §2, §3

[8] = tested on: poinsettia (EPHHL, Euphorbia heterophylla); assay: Postemergence greenhouse trial, herbicidal efficacy on poinsettia; details: applied alone at 35 g/ha, postemergence; for pest or weed control at 35 g/ha: Euphorbia heterophylla, post-emergence, 528 h, rated after 20-22 d, read-out: % visual injury, Obs, EPHHL; for Obs, % visual injury, EPHHL: scored 20-22 d
Protocol: as §1, §2, §3

[9] = tested on: wild buckwheat (POLCO, Polygonum convolvulus); assay: Postemergence greenhouse trial, herbicidal efficacy on wild buckwheat; details: Fallopia convolvulus, post-emergence, 528 h, applied alone at 35 g/ha, postemergence
Protocol: as §1, §2, §3

[10] = tested on: sorghum (SORVU, Sorghum bicolor); assay: Postemergence greenhouse trial, herbicidal efficacy on sorghum; details: applied alone at 35 g/ha; for % visual injury, Obs, SORVU: rated after 20-22 d; for Obs, % visual injury, SORVU: scored 20-22 d
Protocol: as §1, §2, §3

[11] = tested on: chickweed (STEME, Stellaria media); assay: Postemergence greenhouse trial, herbicidal efficacy on chickweed; details: post-emergence, 528 h, applied alone at 35 g/ha, postemergence
Protocol: as §1, §2, §3

[12] = tested on: wild pansy (VIOTR, Viola tricolor); assay: Postemergence greenhouse trial, herbicidal efficacy on wild pansy; details: applied alone at 35 g/ha, postemergence; for pest or weed control at 35 g/ha: Viola tricolor, post-emergence, 528 h, scored 20-22 d, read-out: Obs, % visual injury, VIOTR
Protocol: as §1, §2, §3

[13] = tested on: corn/maize (ZEAMX), Zea mays; assay: Postemergence greenhouse trial, crop injury (phytotoxicity/safening) on corn/maize; details: applied alone at 35 g/ha, rated after 20-22 d
Protocol: as §1
as §2, with “All herbicide application (component a) rates are in g ae/ha and all safener (component b) rates are in g ai/ha.” left out
as §3, with “Colby's equation was used to determine the herbicidal effects expected from the mixtures.” left out
as §4, with “compound” for “compound 3, compound 4, compound”, “corn/maize (ZEAMX)” for “wheat (TRZAS),”, “bicolor), and” for “bicolor),”, “media)” for “media), and wild pansy (VIOTR, Viola tricolor)”
The safener mefenpyr-diethyl was combined with compound 1, compound 2, and compound 5, and applied to corn/maize (ZEAMX) and the phytotoxicity of the herbicidal compositions were measured. […]

[14] = tested on: giant foxtail (SETFA, Setaria faberi); assay: Postemergence greenhouse trial, herbicidal efficacy on giant foxtail; details: applied alone at 35 g/ha
Protocol: as §1, §2, §3

[15] = rated after 20-22 d, read-out: % visual injury, Obs, ABUTH
[16] = scored 20-22 d, read-out: Obs, % visual injury, ABUTH
[17] = rated after 20-22 d, read-out: % visual injury, Obs, AMARE
[18] = scored 20-22 d, read-out: Obs, % visual injury, AMARE
[19] = rated after 20-22 d, read-out: % visual injury, Obs, BRSNW
[20] = scored 20-22 d, read-out: Obs, % visual injury, BRSNW
[21] = rated after 20-22 d, read-out: % visual injury, Obs, CHEAL
[22] = scored 20-22 d, read-out: Obs, % visual injury, CHEAL
[23] = rated after 20-22 d, read-out: % visual injury, Obs, CIRAR
[24] = scored 20-22 d, read-out: Obs, % visual injury, CIRAR
[25] = rated after 20-22 d, read-out: % visual injury, Obs, POLCO
[26] = rated after 20-22 d, read-out: % visual injury, Obs, STEME
[27] = scored 20-22 d, read-out: Obs, % visual injury, STEME
[28] = scored 20-22 d, read-out: Obs, % visual injury, POLCO

SMILES | Obs, % visual injury, TRZAS [1] | pest or weed control at 35 g/ha [2, 15] | pest or weed control at 35 g/ha [2, 16] | pest or weed control at 35 g/ha [3, 17] | pest or weed control at 35 g/ha [3, 18] | plant injury at 35 g/ha [4, 19] | plant injury at 35 g/ha [4, 20] | pest or weed control at 35 g/ha [5, 21] | pest or weed control at 35 g/ha [5, 22] | pest or weed control at 35 g/ha [6, 23] | pest or weed control at 35 g/ha [6, 24] | % visual injury, Obs, CYPES [7] | pest or weed control at 35 g/ha [8] | pest or weed control at 35 g/ha [9, 25] | % visual injury, Obs, SORVU [10] | Obs, % visual injury, SORVU [10] | pest or weed control at 35 g/ha [11, 26] | pest or weed control at 35 g/ha [11, 27] | pest or weed control at 35 g/ha [12] | % visual injury, Obs, ZEAMX [13] | further results
COC(=O)c1nc(-c2ccc3ccn(C(=O)C(C)(C)C)c3c2F)c(F)c(N)c1Cl [compound 5] | 45% | 80% | 80% | 100% | 100% | 97% | 97% | 100% | 100% | 80% | 80% | 0% | 100% | 100% | 60% | 60% | 85% | 85% | 40% | 35% | % visual injury, Obs, VIOTR ([12]; rated after 20-22 d): 40%
CCOC(=O)c1nc(C(Cl)(Cl)Cl)n(-c2ccc(Cl)cc2Cl)n1 [fenchlorazole-ethyl, reference compound] |  | 0% | 0% | 0% | 0% | 0% | 0% | 0% | 0% | 0% | 0% | 0% | 0% | 0% | 0% | 0% | 0% | 0% | 0% |  | Obs, % visual injury, CYPES [7]: 0%; Obs, % visual injury, EPHHL [8]: 0%; pest or weed control at 35 g/ha [9, 28]: 0%; % visual injury, Obs, SETFA ([14]; rated after 20-22 d): 0%; Obs, % visual injury, SETFA ([14]; scored 20-22 d): 0%
COC(=O)c1nc(-c2ccc3ccn(C(=O)C(C)C)c3c2F)c(F)c(N)c1Cl [compound 4] | 40% | 80% | 80% | 100% | 100% | 97% | 97% | 97% | 97% | 75% | 75% | 0% | 100% | 100% | 80% |  | 93% | 93% | 60% | 35% | Obs, % visual injury, CYPES [7]: 0%; Obs, % visual injury, EPHHL [8]: 100%; pest or weed control at 35 g/ha [9, 28]: 100%
